Experiments:
NL4-3 Rluc HIV = experiment: microbe, parasite or virus in culture; format: cell-based; details: Human immunodeficiency virus 1, NL43, MT2, 96 h, read-out: EC50 against HIV
BFTC-905 = experiment: Eurofins OncoPanel (CellTiter-Glo); format: cell-based; details: Homo sapiens, 72 h, 3 days
DB = experiment: Eurofins OncoPanel (CellTiter-Glo); format: cell-based; details: Homo sapiens, 72 h, 3 days
H9 = experiment: Eurofins OncoPanel (CellTiter-Glo); format: cell-based; details: Homo sapiens, 72 h, 3 days
HOP-62 = experiment: cells; format: cell-based; details: Homo sapiens, NCI-60, 48 h
NCI-H460 = experiment: cells; format: cell-based; details: Homo sapiens, NCI-60, 48 h
HCT-116 = experiment: cells; format: cell-based; details: Homo sapiens, NCI-60, 48 h
MALME-3M = experiment: cells; format: cell-based; details: Homo sapiens, NCI-60, 48 h
M14 = experiment: cells; format: cell-based; details: Homo sapiens, NCI-60, 48 h
786-0 = experiment: cells; format: cell-based; details: Homo sapiens, NCI-60, 48 h
CAKI-1 = experiment: cells; format: cell-based; details: Homo sapiens, NCI-60, 48 h
PC-3 = experiment: cells; format: cell-based; details: Homo sapiens, NCI-60, 48 h
[1] = system: HT-29 colorectal cancer xenograft; experiment: HT-29 xenograft study; format: in vivo, mouse; details: 17 days, PAV-951 3 mg kg^−1 IV, Irinotecan 60 mg kg^−1 IP
Experimental: In the second animal efficacy study, human HT-29 colorectal adenocarcinoma cells were grafted subcutaneously onto mice. After tumour establishment, the animals received treatment with vehicle, 3 mg kg^−1 PAV-951 or 60 mg kg^−1 of a positive control drug Irinotecan. […]. Survival was not assessed as part of the study.
HT-29 cells growing in HBSS medium were suspended in Matrigel. 0.1 ml of the cell suspension containing 5 × 10^6 cells were injected subcutaneously into the left flank region of male, 6–8 week old SCID mice. After tumour establishment, animals were divided randomly into groups of six and treated daily by IV with vehicle daily for 17 days, 3 mg kg^−1 PAV-951 three times per week for 17 days, or treated by IP with 60 mg kg^−1 Irinotecan every 4 days for 14 days. Tumour volume was calculated using the formula: (L × W2)/2 where L is the largest diameter and W is the smallest diameter of the tumour. Statistical analysis was performed using GraphPad Prism (Ver. 5.03). Statistical analysis of tumour growth inhibition between the Control and Treated groups was performed by using ne-way ANOVA followed by Dunnett’s test.

Hennes 20 cells = experiment: Cell growth recovery assay; format: cell-based, Chinese hamster; details: PAV-617 0.3 µM 24 h, PAV-951 0.4 µM 6 h, followed to day 14
Experimental: To confirm that the inhibition observed in low-density Hennes 20 cells resulted from temporary arrest of proliferation and not cell death, compound was removed after a period of treatment and cell growth was measured over the subsequent two weeks for recovery potential. Once compound was removed, following a period of recovery, cell proliferation was restored over time for both chemotypes (see figure 1f,g). By day 11, cell density in compound-treated cells had caught up to that in the DMSO-treated cells (see figure 1f,g).
A 96-well plate was seeded with either Hennes 20 or LNCaP C-33 cells at 500 cells per well in 90 µl of minimum essential media and incubated at 37°C for 24 h. 0.5% DMSO was diluted in media and added to six control wells for each plate. PAV-617 was diluted in media and added to three wells at a concentration of 0.3 µM. PAV-951 was diluted in media and added to concentration of 0.4 µM. After 24 h of PAV-617 treatment or 6 h of PAV-951 treatment, the medium containing compound was removed and replaced with fresh media. After 72 h (day 5), plates were assayed with AlamarBlue and fluorescence was read at 530/590. The medium containing AlamarBlue was removed and replaced with fresh media. After another 72 h (day 8) plates were assayed with AlamarBlue and fluorescence again, then medium containing AlamarBlue was removed and replaced with fresh media. […]

LNCaP C-33 cells = experiment: Cell growth recovery assay; format: cell-based, human; details: PAV-617 0.3 µM 24 h, PAV-951 0.4 µM 6 h, followed
[2] = system: A549 human lung cancer xenograft; details: mouse, in vivo
NCI-H226 = experiment: cells; details: Homo sapiens, NCI-H226, 48 h
NCI-H23 = experiment: cells; details: Homo sapiens, NCI-H23, 48 h
SF-268 = experiment: cells; details: Homo sapiens, SF-268, 48 h
U251 = experiment: cells; details: Homo sapiens, U-251, 48 h
SK-MEL-2 = experiment: cells; details: Homo sapiens, SK-MEL-2, 48 h
OVCAR-5 = experiment: cells; details: Homo sapiens, OVCAR-5, 48 h
OVCAR-8 = experiment: cells; details: Homo sapiens, OVCAR-8, 48 h
SK-OV-3 = experiment: cells; details: Homo sapiens, SK-OV-3, 48 h
RXF 393 = experiment: cells; details: Homo sapiens, RXF 393, 48 h
MCF7 = experiment: cells; details: Homo sapiens, MCF7, 48 h
HS 578T = experiment: cells; details: Homo sapiens, 48 h
MDA-MB-468 = experiment: cells; details: Homo sapiens, MDA-MB-468, 48 h

## CC(C)CCNc1ncnc2cc(N3CCN(c4ccc5c(NCCC(C)C)ncnc5c4)CC3)ccc12 [PAV-951]
NL4-3 Rluc HIV
  EC50: 660 nM
BFTC-905
  IC50: 701 nM
DB
  IC50: 895 nM
H9
  IC50: 165 nM
HOP-62
  GI50: 358 nM
NCI-H460
  GI50: 203 nM
HCT-116
  GI50: 185 nM
MALME-3M
  GI50: 1520 nM
M14
  GI50: 533 nM
786-0
  GI50: 339 nM
CAKI-1
  GI50: 311 nM
PC-3
  GI50: 399 nM
[1]
  tumour growth inhibition (TGI): 52%
Hennes 20 cells
  recovery of cell growth after removal of compound: recovered over time
LNCaP C-33 cells
  recovery of cell growth after removal of compound: did not recover
[2]
  adverse effects at the doses of the xenograft studies: without any serious adverse effects
NCI-H226
  GI50: 1760 nM
NCI-H226; read-out: LC50
  CC50: 6810 nM
NCI-H23
  GI50: 1470 nM
NCI-H23; read-out: LC50
  CC50: 5620 nM
SF-268
  GI50: 217 nM
SF-268; read-out: LC50
  CC50: 2010 nM
U251
  GI50: 213 nM
U251; read-out: LC50
  CC50: 910 nM
SK-MEL-2
  GI50: 1650 nM
SK-MEL-2; read-out: LC50
  CC50: 5910 nM
OVCAR-5
  GI50: 1080 nM
OVCAR-5; read-out: LC50
  CC50: 4830 nM
OVCAR-8
  GI50: 521 nM
OVCAR-8; read-out: LC50
  CC50: 5180 nM
SK-OV-3
  GI50: 1550 nM
SK-OV-3; read-out: LC50
  CC50: 6340 nM
RXF 393
  GI50: 448 nM
MCF7
  GI50: 177 nM
MCF7; read-out: LC50
  CC50: 924 nM
HS 578T
  GI50: 352 nM
HS 578T; read-out: LC50
  CC50: > 100000 nM
MDA-MB-468
  GI50: 1470 nM
MDA-MB-468; read-out: LC50
  CC50: 5610 nM

— PMC11651915, “Small molecule protein assembly modulators with pan-cancer therapeutic efficacy” (Open Biology, 2024)
